Where two headings read alike, the source gives them in different places.

Assay [1] concerns cAMP-dependent protein kinase (PKA). The assay can be described thus: Test for 3',5'-cAMP-dependent protein kinase inhibition (PKA catalytic subunit, Kemptide substrate). The format is biochemical. Conditions: 40 μM ATP, 15' at 30° C. As to the method: Test for 3',5'-cAMP-dependent protein kinase inhibition
The catalytic subunit of the cAMP-dependent protein kinase (PKA) (Sigma) was reconstituted as described by Sigma (Sigma Chemical Co., St. Louis, Mo. USA). The enzyme activity was measured using Kemptide (Sigma) (Leu-Arg-Arg-Ala-Ser-Leu-Gly) as a substrate. […] The reaction was initiated by addition of gamma-^32 P ATP (40 μM) After 15'at 30° C., an aliquot part was added to p81 ion exchanger (2×2 cm; Whatman Paper Ltd., Great Britain), immersed in 75 mM H3 PO4, washed, dried, and the incorporation of ^32 P was determined by means of a liquid scintillation counter.

The test system of assay [2] is hela cells. The assay can be described thus: Test for inhibition of EGF-stimulated proliferation of tumor cells (hela, MTT). Conditions: 65 h; for inhibition at 5 µg/mL: read-out: EGF stimulation % inhibition at 5 μg/ml; for inhibition at 1 µg/mL: read-out: EGF stimulation % inhibition at 1 μg/ml. Type of assay: cell-based. As to the method:
Test for inhibition of EGF- or bFGF-stimulated proliferation of tumor cells
2×10^3 hela cells per well were inoculated into a 96-well microtiter plate (in RPMI+1% FCS ). After 24 h, the medium was changed to RPMI+0.5% FCS and various concentrations of the test substance±EGF (0.1 nM)/bFGF (1 ng/ml) were added. Each group consisted of 4 wells; the control was only incubated±growth factor. After 65 h, 50 μof MTT (2.5 mg/ml in PBS) were added and the supernatant was removed after 7 h. The colored substance formed by the living cells was dissolved by addition of 100 μl of DMSO/well. The absorption was measured at 492 nm for each well with the aid of a 340 CC Multiscan photometer (Flow).
The mean value is formed from the 4 wells of a group and the absorption difference between the controls± growth factor (A) and between the groups with test substance± growth factor (B) is determined.

Assay [3] has as its target T1, EGF receptor tyrosine kinase (EGFRTK) (Homo sapiens, UniProt P00533).
T1 construct: This cell line expresses a large number of EGF receptors which have tyrosine kinase activity on the cell surface; endogenous in cells; host or cells: A 431 (ATCC CRL 1555), membrane preparation
In words: biochemical. As to the method:
Test for EGF receptor tyrosine kinase inhibition
This cell line expresses a large number of EGF receptors which have tyrosine kinase activity on the cell surface. The cells were cultured almost to confluence, washed with PBS (phosphate buffered saline, pH 7.2), scraped off the culture flask and incubated at 4° C. for 1 h, subjected to 20 strokes in a Potter and centrifuged at 1000 g for 30'. The supernatant was centrifuged at 20000 g for a further 20 min and the pellet was taken up in 100 μl per 1×10^6 cells as the membrane preparation.
The tyrosine kinase activity of the EGF receptor (EGFRTK) was measured using poly(Glu, Ala, Tyr), 6:3:1, as the substrate. […] After 15'at 30° C., the substrate was precipitated with 10% TCA (trichloroacetic acid), filtered on a millititer filtration plate (Millipore Corporation, Massachusetts, USA), washed and dried. The incorporation of ^32 P was determined by means of a liquid scintillation counter.

[4] abbreviates: hela cells, EGF 0.1 nM, tox = toxic.
Setting [5] is: Homo sapiens, 5 μg/ml, hela cells, EGF 0.1 nM, tox = toxic.
[6] abbreviates: A 431 membranes, 1000 nM EGF, 32 μM ATP, 15' at 30° C., max. 51 μg/ml, read-out: EGFRTK IC50 (converted).

T1 sequence (P00533 25-1210): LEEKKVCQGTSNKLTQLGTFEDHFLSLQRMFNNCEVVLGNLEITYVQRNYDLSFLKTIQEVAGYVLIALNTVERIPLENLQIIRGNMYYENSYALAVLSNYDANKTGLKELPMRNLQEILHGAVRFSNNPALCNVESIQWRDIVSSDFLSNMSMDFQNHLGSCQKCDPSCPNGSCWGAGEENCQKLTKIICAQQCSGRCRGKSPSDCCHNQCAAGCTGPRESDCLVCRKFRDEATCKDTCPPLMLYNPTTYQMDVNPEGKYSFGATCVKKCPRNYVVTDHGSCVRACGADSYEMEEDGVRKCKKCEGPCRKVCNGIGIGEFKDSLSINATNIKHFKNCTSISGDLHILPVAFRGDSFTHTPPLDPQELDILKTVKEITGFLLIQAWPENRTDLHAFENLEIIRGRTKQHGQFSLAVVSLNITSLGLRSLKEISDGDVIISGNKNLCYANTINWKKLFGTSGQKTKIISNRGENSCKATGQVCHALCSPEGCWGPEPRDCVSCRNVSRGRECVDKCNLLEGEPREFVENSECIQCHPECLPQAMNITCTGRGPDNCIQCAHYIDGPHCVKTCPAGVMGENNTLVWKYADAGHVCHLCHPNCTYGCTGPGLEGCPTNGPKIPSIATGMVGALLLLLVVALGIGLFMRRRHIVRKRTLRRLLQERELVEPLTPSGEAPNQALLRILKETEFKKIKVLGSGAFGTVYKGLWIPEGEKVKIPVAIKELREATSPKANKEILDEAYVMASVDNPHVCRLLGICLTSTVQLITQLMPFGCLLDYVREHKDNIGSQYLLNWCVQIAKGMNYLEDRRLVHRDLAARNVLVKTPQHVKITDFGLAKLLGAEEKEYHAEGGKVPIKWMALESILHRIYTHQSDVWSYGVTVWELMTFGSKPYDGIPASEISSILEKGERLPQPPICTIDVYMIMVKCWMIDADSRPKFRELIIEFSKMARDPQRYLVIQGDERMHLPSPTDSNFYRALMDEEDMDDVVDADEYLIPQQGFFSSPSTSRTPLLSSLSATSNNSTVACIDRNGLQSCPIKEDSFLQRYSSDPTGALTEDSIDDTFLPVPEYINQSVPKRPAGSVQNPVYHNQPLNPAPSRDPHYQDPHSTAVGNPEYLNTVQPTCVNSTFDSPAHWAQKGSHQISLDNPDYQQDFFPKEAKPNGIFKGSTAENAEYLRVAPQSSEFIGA

What is called IC50 is the concentration that inhibits the measured activity by half. On to `O=C(O)c1ccc(NCc2cc(O)ccc2O)cc1` [4-[N-(2',5'-Dihydroxybenzyl)amino]benzoic acid], for which the “PKA % inhib. at 40 μg/ml” value in assay [1] turned out to be 61%. In assay [2] (setting [4]), the “EGF stimulation % inhibition at 25 μg/ml” value is “tox”. Also, the inhibition at 5 µg/mL in assay [2] (setting [5]) was 36%. For the same compound, in assay [3] (setting [6]), the half-maximal inhibitory concentration (IC50) was 17.8 µM.
In the case of `Cc1cc(O)ccc1O` [2-Methylhydroquinone], the “PKA % inhib. at 40 μg/ml” value in assay [1] is given as 46%. Also, the inhibition at 1 µg/mL in assay [2] (Homo sapiens, 1 μg/ml, hela cells, EGF 0.1 nM, tox = toxic) came to 21%. Also, the inhibition at 5 µg/mL in assay [2] (setting [5]) was 66%. For the same compound, in assay [3] (setting [6]), the concentration for half-maximal inhibition (IC50) was 8.86 µM.
For `Oc1ccc(O)c(Cl)c1` [2-Chlorohydroquinone], the “PKA % inhib. at 40 μg/ml” value in assay [1] is 0%. Moreover, the “EGF stimulation % inhibition at 25 μg/ml” value in assay [2] (setting [4]) is on record as “tox”. For the same compound, the inhibition at 5 µg/mL in assay [2] (setting [5]) amounted to 46%. In assay [3], the midpoint of inhibition, the IC50, lay at 13.1 µM.
Take `Oc1ccc(O)c(O)c1` [1,2,4-Trihydroxybenzene]: in assay [1], the “PKA % inhib. at 40 μg/ml” value was 0%. Further, the “EGF stimulation % inhibition at 5 μg/ml” value in assay [2] (5 μg/ml, hela cells, EGF 0.1 nM, tox = toxic) is given as “tox”. In addition, the inhibition at 1 µg/mL in assay [2] (Homo sapiens, HeLa) came out at 5%. Moreover, in assay [3] (setting [6]), the IC50 was 190 µM.
Take `Oc1ccc(O)c(C=NCc2ccccc2)c1` [Ex. 3, N-Benzyl-2,5-dihydroxybenzaldimine]: in assay [1], the “PKA % inhib. at 40 μg/ml” value stood at 0%. Also, the “EGF stimulation % inhibition at 25 μg/ml” value in assay [2] (setting [4]) is “tox”. The inhibition at 5 µg/mL in assay [2] (setting [5]) was determined as 28%. For the same compound, in assay [3] (setting [6]), the IC50 was 7.48 µM.
For `CC(C)(C)c1cc(O)ccc1O` [2-tert-Butylhydroquinone], the “PKA % inhib. at 40 μg/ml” value in assay [1] is 22%. In addition, in assay [2] (Homo sapiens, HeLa), the inhibition at 1 µg/mL amounted to 21% and the inhibition at 5 µg/mL was determined as 52%. For the same compound, the concentration for half-maximal inhibition (IC50) in assay [3] (setting [6]) is 5.72 µM.
For `COC(=O)[C@H](Cc1c[nH]cn1)N=Cc1cc(O)ccc1O` [Ex. 5, (S)-α-N-(2,5-Dihydroxybenzylidene)histidine methyl ester], the “PKA % inhib. at 40 μg/ml” value in assay [1] is on record as 0%. In addition, the inhibition at 5 µg/mL in assay [2] (Homo sapiens, HeLa) stood at 10%. For the same compound, the inhibition at 25 µg/mL in assay [2] (Homo sapiens, HeLa, read-out: EGF stimulation % inhibition at 25 μg/ml) is 44%. The compound also showed an IC50 in assay [3] of 43.7 µM.

For the origin of these results see patent US5519018A, “Substituted phenols and their use for the treatment of disorders caused by cell proliferation” (Behringwerke Aktiengesellschaft, priority 1992, dated 1996).
